Laboratory results reported in the SangsterLogP compilation.

Test: method code SF-AS, from DOI: 10.1248/cpb.39.1736, PMID: 1777927

SMILES	logP
CCCCc1ccc(O)c(O)c1	2.96
COc1ccc(CCNC(=O)/C=C/c2ccc(O)c(O)c2)cc1OC	2.07
COc1ccc(CNC(=O)C=Cc2ccc(O)c(O)c2)cc1OC	1.99
CCCCCCNC(=O)C=Cc1ccc(O)c(O)c1	3.37
CCCC(=O)C=Cc1ccc(O)c(O)c1	2.61
CCCCNC(=O)c1ccc2cc(O)c(O)cc2c1	2.72
COc1ccc(NC(=O)/C=C/c2ccc(O)c(O)c2)cc1OC	2.3
CCCCCCNC(=O)/C=C/Oc1ccc(O)c(O)c1	3.36
CCCCC=Cc1ccc(O)c(O)c1	3.82
O=C(/C=C/c1ccc(O)c(O)c1)NCc1ccccc1	2.48
O=C(/C=C/c1ccc(O)c(O)c1)NCCc1ccccc1	2.72
CCCCOC(=O)/C=C/c1ccc(O)c(O)c1	3.53
CCc1ccc2cc(O)c(O)cc2c1	3.25

Results, then the compound that gave them:

logP	SMILES
2.71	CCCCCCNC(=O)c1ccc(O)c(O)c1
1.67	O=C(/C=C/c1ccc(O)c(O)c1)CCCCCO
2.32	CCCCCC(O)c1ccc(O)c(O)c1 (stereo not drawn)
2.32	CC(=O)c1ccc2cc(O)c(O)cc2c1
2.7	CCOc1ccc2cc(O)c(O)cc2c1
